The values below come from article PMC4014116, “Hitting the target: fragment screening with acoustic in situ co-crystallization of proteins plus fragment libraries on pin-mounted data-collection micromeshes” (Acta Crystallographica Section D: Biological Crystallography, 2014).

Test [1] deals with T1, stachydrine demethylase (Sinorhizobium meliloti, UniProt Q92ZP9).
T1 construct: gene stc2
The settings on record: 2.3 A; pH 7 HEPES; 25 mM hexaamine CoCl2.

Test [2] has as its target T1, stachydrine demethylase. The test can be described thus: X-ray structure of co-crystal; demethylated product seen. Type of test: binding. The settings on record: 2.3 A; pH 7 HEPES; 25 mM hexaamine CoCl2; N-methyl group cleaved on X-ray exposure, only L-proline in the density.
The target in test [3] is T2, lysozyme (Gallus gallus, UniProt P00698).
T2 construct: gene LYZ
The test can be described thus: X-ray structure of co-crystal (fragment screen). Type of test: binding. To be noted: pH 4.6 acetate, 4% NaCl.

The target of test [4] is T3, trypsin (Bos taurus, UniProt P00760).
T3 construct: gene PRSS1
T3 sequence (P00760 24-246): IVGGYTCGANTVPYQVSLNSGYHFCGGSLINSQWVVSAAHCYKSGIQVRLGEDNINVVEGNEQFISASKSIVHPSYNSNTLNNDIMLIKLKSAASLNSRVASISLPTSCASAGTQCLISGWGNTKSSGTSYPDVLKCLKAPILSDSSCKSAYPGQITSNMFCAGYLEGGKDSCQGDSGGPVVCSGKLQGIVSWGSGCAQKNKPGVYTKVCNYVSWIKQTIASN
The test can be described thus: X-ray structure of co-crystal (fragment screen). Type of test: binding. The settings on record: pH 7 HEPES, 10 mM CaCl2.

Take `O=C(O)[C@@H]1CCCN1` [L-proline]: the “X-ray structure of co-crystal” value in test [1] is reported as “When L-proline was co-crystallized with stachydrine demethylase, the L-proline was observed in the electron density”.

`CN1CCC[C@H]1C(=O)O` [N-methylproline]: the “X-ray structure of co-crystal; demethylated product seen” value in test [2] is “exposure to X-rays quickly induces enzymatic cleavage of the N-methyl group, leaving behind L-proline”.

As for `CC(=O)N[C@H]1C(O)O[C@H](CO)[C@@H](O)[C@@H]1O` (stereo partly drawn) [N-acetylglucosamine], in test [3], the “X-ray structure of co-crystal (fragment screen)” value was “The known N-acetylglucosamine ligand was easily identified in the electron density”. Consider `c1c[nH]cn1` [imidazole], for which the “X-ray structure of co-crystal (fragment screen)” value in test [4] (10 mg/ml benzamidine present, allosteric site distant from the active site) was “imidazole (a previously unreported allosteric binding mode that is distant from the active site; PDB entry 4ncy)”.

As for `N=C(N)c1ccccc1` [benzamidine], the “X-ray structure of co-crystal (fragment screen)” value is “the known benzamidine ligand in the best diffracting no-hit screen” in test [4] (known control) and “Benzamidine was also observed to bind to lysozyme, a previously unreported result (PDB entry 4n8z)” in test [3].
